Measurements published in PubChem BioAssay AID248 (DTP/NCI, 2004).
Values joined by “and” are separate entries in the source; they are usually repeats but may differ in a detail not shown here. Equal entries are not always repeated. Toxic doses and inconclusive results are not listed.

System: L1210 leukemia ip in BDF1 mice, survival T/C
Test: NCI In Vivo Anticancer Drug Screen. Data for tumor model L1210 Leukemia (intraperitoneal) in B6D2F1 (BDF1) mice
Conditions: endpoint: mean survival time, higher = longer survival
How it was run: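 Read-out is survival time, reported as the treated-group measurement over the vehicle-control measurement.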

[1] = dose: 100.0 mg/kg/injection, schedule: Q04DX002 (ip), vehicle: Klucel (hydroxypropylcellulose) (HPC)
[2] = dose: 200.0 mg/kg/injection, schedule: Q04DX002 (ip), vehicle: Klucel (hydroxypropylcellulose) (HPC)
[3] = dose: 400.0 mg/kg/injection, schedule: Q04DX002 (ip), vehicle: Klucel (hydroxypropylcellulose) (HPC)
[4] = dose: 100.0 mg/kg/injection, schedule: Q01DX009 (ip), vehicle: saline with Tween-80
[5] = dose: 200.0 mg/kg/injection, schedule: Q01DX009 (ip), vehicle: saline with Tween-80
[6] = dose: 400.0 mg/kg/injection, schedule: Q01DX009 (ip), vehicle: saline with Tween-80

## CC1CN=C(c2ccc(NC(=O)c3cccc(C(=O)Nc4ccc(C5=NCC(C)N5)cc4)c3)cc2)N1 (stereo not given)
dose: 4.5 mg/kg/injection, schedule: Q01DX Z (ip), vehicle: carboxymethylcellulose (CMC)
  T/C: 98 % of control
dose: 6.8 mg/kg/injection, schedule: Q01DX Z (ip), vehicle: carboxymethylcellulose (CMC)
  T/C: 95 % of control
dose: 10.2 mg/kg/injection, schedule: Q01DX Z (ip), vehicle: carboxymethylcellulose (CMC)
  T/C: 124 % of control
dose: 16.4 mg/kg/injection, schedule: Q01DX Z (ip), vehicle: carboxymethylcellulose (CMC)
  T/C: 101 % of control
dose: 37.0 mg/kg/injection, schedule: Q01DX Z (ip), vehicle: carboxymethylcellulose (CMC)
  T/C: 155 % of control
dose: 40.0 mg/kg/injection, schedule: Q01DX Z (ip), vehicle: carboxymethylcellulose (CMC)
  T/C: 151 % of control
dose: 50.0 mg/kg/injection, schedule: Q## X010 (oral), vehicle: saline
  T/C: 97 % of control
dose: 55.5 mg/kg/injection, schedule: Q01DX Z (ip), vehicle: carboxymethylcellulose (CMC)
  T/C: 113 % of control and 87 % of control
dose: 100.0 mg/kg/injection, schedule: Q## X010 (oral), vehicle: saline
  T/C: 103 % of control
dose: 200.0 mg/kg/injection, schedule: Q## X010 (oral), vehicle: saline
  T/C: 96 % of control

## O=S(=O)(O)c1ccc(O)c2ncccc12
dose: 100.0 mg/kg/injection, schedule: Q04DX003 (ip), vehicle: saline
  T/C: 95 % of control
dose: 200.0 mg/kg/injection, schedule: Q04DX003 (ip), vehicle: saline
  T/C: 101 % of control
dose: 400.0 mg/kg/injection, schedule: Q04DX003 (ip), vehicle: saline
  T/C: 101 % of control

## CN=C(c1ccc(NC(=O)c2ccc(C(=O)Nc3ccc(C(=NC)N(C)C)cc3)cc2)cc1)N(C)C
dose: 0.94 mg/kg/injection, schedule: Q01DX Z (ip), vehicle: saline
  T/C: 94 % of control
dose: 1.88 mg/kg/injection, schedule: Q01DX Z (ip), vehicle: saline
  T/C: 101 % of control
dose: 3.75 mg/kg/injection, schedule: Q01DX Z (ip), vehicle: saline
  T/C: 97 % of control
dose: 7.5 mg/kg/injection, schedule: Q01DX Z (ip), vehicle: saline
  T/C: 111 % of control

## O=C(c1ccccc1)C1(Br)CCCCC1
dose: 100.0 mg/kg/injection, schedule: Q01DX009 (ip), vehicle: Klucel (hydroxypropylcellulose) (HPC)
  T/C: 96 % of control
dose: 100.0 mg/kg/injection, schedule: Q01DX009 (ip), vehicle: saline
  T/C: 95 % of control
dose: 200.0 mg/kg/injection, schedule: Q01DX009 (ip), vehicle: Klucel (hydroxypropylcellulose) (HPC)
  T/C: 96 % of control
dose: 400.0 mg/kg/injection, schedule: Q01DX009 (ip), vehicle: Klucel (hydroxypropylcellulose) (HPC)
  T/C: 93 % of control
dose: 400.0 mg/kg/injection, schedule: Q01DX009 (ip), vehicle: saline
  T/C: 101 % of control

## CC(C)(C)c1cc2c(cc1O)C(C)(C)CCC2(C)C
[1]
  T/C: 105 % of control
[2]
  T/C: 105 % of control
[3]
  T/C: 98 % of control

## CCCCOC(=O)Nc1ccccc1OCC
[1]
  T/C: 109 % of control
[2]
  T/C: 106 % of control
[3]
  T/C: 98 % of control

## CC(CP(=O)(c1ccccc1)c1ccccc1)C(=O)O (stereo not given)
[4]
  T/C: 98 % of control
[5]
  T/C: 97 % of control
[6]
  T/C: 98 % of control

## Cc1c(C)c2cc3ccc(Cl)cc3nc2c2ccccc12
dose: 100.0 mg/kg/injection, schedule: Q04DX003 (ip), vehicle: Klucel (hydroxypropylcellulose) (HPC)
  T/C: 103 % of control
dose: 200.0 mg/kg/injection, schedule: Q04DX003 (ip), vehicle: Klucel (hydroxypropylcellulose) (HPC)
  T/C: 105 % of control
dose: 400.0 mg/kg/injection, schedule: Q04DX003 (ip), vehicle: Klucel (hydroxypropylcellulose) (HPC)
  T/C: 110 % of control

## CCC(=O)O[C@H]1CC[C@H]2[C@@H]3[C@@H](C)CC4=CC(=O)CC[C@]4(C)[C@H]3CC[C@]12C
[4]
  T/C: 93 % of control
dose: 100.0 mg/kg/injection, schedule: Q04DX003 (ip), vehicle: saline with Tween-80
  T/C: 90 % of control
dose: 200.0 mg/kg/injection, schedule: Q04DX003 (ip), vehicle: saline with Tween-80
  T/C: 90 % of control
[6]
  T/C: 91 % of control
dose: 400.0 mg/kg/injection, schedule: Q04DX003 (ip), vehicle: saline with Tween-80
  T/C: 87 % of control

## O=C1N(c2ccccc2)C(c2ccccc2)C1(c1ccccc1)c1ccccc1 (stereo not given)
dose: 100.0 mg/kg/injection, schedule: Q01DX001 (ip), vehicle: gum acacia
  T/C: 92 % of control
dose: 200.0 mg/kg/injection, schedule: Q01DX001 (ip), vehicle: gum acacia
  T/C: 86 % of control
dose: 400.0 mg/kg/injection, schedule: Q01DX001 (ip), vehicle: gum acacia
  T/C: 94 % of control

## O=C1c2ccccc2C(O)N1c1ccccc1 (stereo not given)
dose: 100.0 mg/kg/injection, schedule: Q01DX001 (ip), vehicle: saline
  T/C: 86 % of control
dose: 400.0 mg/kg/injection, schedule: Q01DX001 (ip), vehicle: saline
  T/C: 104 % of control

## c1ccc(CCc2ccccc2)cc1
[4]
  T/C: 91 % of control
dose: 100.0 mg/kg/injection, schedule: Q04DX002 (ip), vehicle: saline with Tween-80
  T/C: 95 % of control
[5]
  T/C: 91 % of control
dose: 200.0 mg/kg/injection, schedule: Q04DX002 (ip), vehicle: saline with Tween-80
  T/C: 98 % of control
[6]
  T/C: 94 % of control
dose: 400.0 mg/kg/injection, schedule: Q04DX002 (ip), vehicle: saline with Tween-80
  T/C: 98 % of control
